Laboratory results from patent US20230066011A1, “PYRROLOPYRIMIDINE DERIVATIVE, AND PHARMACEUTICAL COMPOSITION FOR PREVENTING OR TREATING PROTEIN KINASE-RELATED DISEASE COMPRISING SAME AS ACTIVE INGREDIENT” (VORONOI CO., LTD., priority 2019, published 2023).
pIC50: −log10 of the molar value.

What was measured:
DYRK1 = DYRK1 (Homo sapiens, UniProt Q13627); assay: Kinase HotSpot service (Reaction Biology Corporation), DYRK1; type: biochemical; conditions: ATP 10 uM, read-out: DYRK1 IC50 (values indicated by *)
Description: The inhibitory activities of the compounds were measured at a 3-fold concentration gradient starting from a maximum compound concentration of […], and the values measured using the Kinase HotSpot service (Reaction Biology Corporation) are indicated by an asterisk (*).
All the experimental methods were performed as provided by the Kinase HotSpot Customer Protocol (http://www.reactionbiology.com//Kinase_Assay_Protocol).

MDA-MB-231 cell line = assay: Inhibition of proliferation of MDA-MB-231 cancer cells (Cell Titer-Glo); type: cell-based; conditions: Homo sapiens, 72 hours
Summary of the method: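 Growth inhibition over 72 h: cells seeded at 2,000/well and dosed at eleven 3-fold-spaced final concentrations from 10.000000 μM. Read-out is ATP luminescence (Cell Titer-Glo, 10 min, room temperature), with GI50 derived from it.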

human DYRK1A and tau = assay: Inhibition of tau phosphorylation, ClariCELL Kinase Cell-Based Assay, HEK 293 cells expressing human DYRK1A and tau; conditions: for inhibition at 1 µM: HEK293, read-out: % inhibition at 1 uM, tau phosphorylation, compound 1 uM; for inhibition at 0.25 µM / inhibition at 0.5 µM: HEK293, tau phosphorylation; for inhibition at 0.25 µM: compound 0.25 uM; for inhibition at 0.5 µM: compound 0.5 uM
Summary of the method: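 Cell-based service assay: HEK 293 cells transiently expressing human DYRK1A and tau were treated with compound and lysed. Released tau was plate-captured and its phosphorylation quantified by ELISA with a phospho-tau-specific antibody.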

TNF-α = assay: Inhibition of LPS-induced TNF-α secretion of THP-1 monocytes (ELISA); type: cell-based, human; conditions: Homo sapiens, THP-1; compound 0.5 μM, LPS 500 ng/mL, 24 hours; read-out: THP-1/TNF-α (% inhib)
Summary of the method: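 THP-1 monocytes grown 16 h at 37 °C, pretreated 1 h with compound at final 0.5 μM, then stimulated with LPS at final 500 ng/mL for 24 h. IL-6 and TNF-α in culture supernatant measured by ELISA (OD 450 nm).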

LRRK2 (G2019S) = LRRK2 (G2019S) (Homo sapiens, UniProt Q5S007, G2019S); assay: ScanMAX Kinase analysis panel, LRRK2 (G2019S); type: binding; parameters: purchased DiscoverX Corp. (ScanMAX Kinase analysis panel, service); conditions: 1 μM in DMSO; <35% considered inhibitory; read-out: percent control (% control), LRRK2 (G2019S)
Sequence of LRRK2 (G2019S) (Q5S007 whole entry G2019S): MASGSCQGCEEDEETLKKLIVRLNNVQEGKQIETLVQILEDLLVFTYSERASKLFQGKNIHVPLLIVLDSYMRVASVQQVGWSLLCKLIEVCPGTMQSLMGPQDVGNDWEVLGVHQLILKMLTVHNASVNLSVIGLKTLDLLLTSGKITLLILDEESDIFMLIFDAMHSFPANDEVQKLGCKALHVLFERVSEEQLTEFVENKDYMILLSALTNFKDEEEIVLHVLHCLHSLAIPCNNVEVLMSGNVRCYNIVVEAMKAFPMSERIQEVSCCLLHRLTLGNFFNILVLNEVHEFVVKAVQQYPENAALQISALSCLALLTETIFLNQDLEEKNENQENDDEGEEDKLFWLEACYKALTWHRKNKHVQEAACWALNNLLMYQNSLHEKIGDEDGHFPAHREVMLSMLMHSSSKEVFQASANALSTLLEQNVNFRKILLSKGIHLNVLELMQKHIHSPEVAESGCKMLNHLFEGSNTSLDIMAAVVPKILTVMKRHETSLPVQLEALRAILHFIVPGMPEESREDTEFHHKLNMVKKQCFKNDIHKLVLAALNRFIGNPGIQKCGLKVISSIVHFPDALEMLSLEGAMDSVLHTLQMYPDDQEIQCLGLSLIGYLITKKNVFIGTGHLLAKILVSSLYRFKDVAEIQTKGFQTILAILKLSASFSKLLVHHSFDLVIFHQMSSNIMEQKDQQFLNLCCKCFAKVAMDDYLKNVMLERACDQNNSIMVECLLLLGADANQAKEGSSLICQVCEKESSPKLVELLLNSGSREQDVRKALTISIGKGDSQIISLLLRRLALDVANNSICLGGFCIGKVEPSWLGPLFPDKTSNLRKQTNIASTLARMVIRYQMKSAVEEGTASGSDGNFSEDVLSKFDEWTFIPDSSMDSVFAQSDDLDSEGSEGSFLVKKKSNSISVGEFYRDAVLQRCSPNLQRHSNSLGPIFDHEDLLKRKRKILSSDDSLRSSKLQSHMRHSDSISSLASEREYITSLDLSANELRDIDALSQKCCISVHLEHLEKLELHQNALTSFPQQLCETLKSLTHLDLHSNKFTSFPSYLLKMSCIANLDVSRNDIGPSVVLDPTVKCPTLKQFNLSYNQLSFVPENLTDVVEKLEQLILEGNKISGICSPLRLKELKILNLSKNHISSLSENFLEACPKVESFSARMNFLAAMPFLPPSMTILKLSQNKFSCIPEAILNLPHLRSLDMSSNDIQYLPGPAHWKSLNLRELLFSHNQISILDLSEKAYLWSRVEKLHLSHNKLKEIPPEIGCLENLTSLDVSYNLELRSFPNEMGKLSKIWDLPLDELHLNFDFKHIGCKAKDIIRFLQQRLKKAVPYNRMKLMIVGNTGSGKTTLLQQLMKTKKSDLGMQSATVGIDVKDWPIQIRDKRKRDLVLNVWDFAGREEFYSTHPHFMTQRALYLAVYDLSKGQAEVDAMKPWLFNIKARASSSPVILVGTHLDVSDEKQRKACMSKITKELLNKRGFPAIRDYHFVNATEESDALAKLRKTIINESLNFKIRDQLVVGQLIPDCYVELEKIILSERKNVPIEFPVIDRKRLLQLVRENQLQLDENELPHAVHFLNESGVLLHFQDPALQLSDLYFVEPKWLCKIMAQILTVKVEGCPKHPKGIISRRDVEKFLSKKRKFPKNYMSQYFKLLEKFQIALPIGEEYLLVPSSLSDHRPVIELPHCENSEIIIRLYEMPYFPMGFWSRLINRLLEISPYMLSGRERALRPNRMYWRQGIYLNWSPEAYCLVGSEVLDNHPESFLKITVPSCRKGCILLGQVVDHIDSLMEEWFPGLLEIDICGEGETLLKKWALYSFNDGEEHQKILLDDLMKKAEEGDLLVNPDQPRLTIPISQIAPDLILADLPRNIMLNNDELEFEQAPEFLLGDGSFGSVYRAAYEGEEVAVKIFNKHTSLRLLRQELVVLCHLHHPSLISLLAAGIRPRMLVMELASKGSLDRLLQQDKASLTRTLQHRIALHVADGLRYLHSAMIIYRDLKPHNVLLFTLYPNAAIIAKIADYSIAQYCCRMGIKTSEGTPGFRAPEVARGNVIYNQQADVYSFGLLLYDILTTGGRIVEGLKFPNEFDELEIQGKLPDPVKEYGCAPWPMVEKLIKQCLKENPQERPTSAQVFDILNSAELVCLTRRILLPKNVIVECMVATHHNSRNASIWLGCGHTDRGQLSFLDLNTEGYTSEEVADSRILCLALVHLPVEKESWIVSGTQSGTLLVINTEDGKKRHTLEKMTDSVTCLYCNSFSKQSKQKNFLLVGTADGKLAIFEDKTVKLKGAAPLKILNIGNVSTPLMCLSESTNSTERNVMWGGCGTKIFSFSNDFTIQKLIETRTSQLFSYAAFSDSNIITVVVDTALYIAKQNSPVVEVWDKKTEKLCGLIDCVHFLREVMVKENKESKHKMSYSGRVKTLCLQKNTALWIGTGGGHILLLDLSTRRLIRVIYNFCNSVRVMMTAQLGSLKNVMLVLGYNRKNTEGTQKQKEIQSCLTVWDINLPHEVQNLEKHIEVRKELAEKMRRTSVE
Description: (§1) Specifically, the enzyme (kinase) selectivity of Example compounds 238, 361, 411, 157, 161, 228, and 158 selected from the Example compounds of the present invention was determined by commissioning DiscoverX Corp., and an experiment was performed using a ScanMAX™ Kinase analysis panel. In this case, a concentration of the drug with which the enzymes were treated was 1 μM in DMSO, and the percent control (% control) was defined in the same manner as in the following Expression 1.
(§2) (Example Compound−Positive Control)/(Negative Control−Positive Control)×100 [Expression 1]
(§3) wherein the positive control represents a compound having a percent control of 0%, and the negative control represents DMSO having a percent control of 100%. For the enzyme selectivity of the present invention, it was considered that the compound has an inhibitory activity on each of the enzymes when the percent control for the corresponding enzyme was <35% (i. e., less than 35%).

CLK3 = target: T1, CLK3 (Homo sapiens, UniProt P49761); assay: ScanMAX Kinase analysis panel, CLK3; type: binding; conditions: 1 μM in DMSO; <35% considered inhibitory; read-out: percent control (% control), CLK3
T1 construct: purchased DiscoverX Corp. (ScanMAX Kinase analysis panel, service)
T1 sequence (P49761 whole entry): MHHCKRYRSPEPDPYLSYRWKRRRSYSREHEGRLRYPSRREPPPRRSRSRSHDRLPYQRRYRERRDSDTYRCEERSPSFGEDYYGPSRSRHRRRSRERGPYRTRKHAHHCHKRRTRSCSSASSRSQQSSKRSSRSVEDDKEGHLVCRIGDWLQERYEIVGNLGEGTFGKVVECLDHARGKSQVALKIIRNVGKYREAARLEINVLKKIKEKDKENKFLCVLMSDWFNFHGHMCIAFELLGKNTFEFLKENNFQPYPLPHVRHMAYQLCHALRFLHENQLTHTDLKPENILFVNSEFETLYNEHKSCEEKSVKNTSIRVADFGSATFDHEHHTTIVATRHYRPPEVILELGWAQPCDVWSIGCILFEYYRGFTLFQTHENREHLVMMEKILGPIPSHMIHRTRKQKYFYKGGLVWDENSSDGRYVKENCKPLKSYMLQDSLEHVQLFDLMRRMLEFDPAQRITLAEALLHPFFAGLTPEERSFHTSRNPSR
Description: as §1, §2, §3

FAK = target: T2, FAK (Homo sapiens, UniProt Q05397); assay: ScanMAX Kinase analysis panel, FAK; type: binding; conditions: 1 μM in DMSO; <35% considered inhibitory; read-out: percent control (% control), FAK
T2 construct: purchased DiscoverX Corp. (ScanMAX Kinase analysis panel, service)
T2 sequence (Q05397 whole entry): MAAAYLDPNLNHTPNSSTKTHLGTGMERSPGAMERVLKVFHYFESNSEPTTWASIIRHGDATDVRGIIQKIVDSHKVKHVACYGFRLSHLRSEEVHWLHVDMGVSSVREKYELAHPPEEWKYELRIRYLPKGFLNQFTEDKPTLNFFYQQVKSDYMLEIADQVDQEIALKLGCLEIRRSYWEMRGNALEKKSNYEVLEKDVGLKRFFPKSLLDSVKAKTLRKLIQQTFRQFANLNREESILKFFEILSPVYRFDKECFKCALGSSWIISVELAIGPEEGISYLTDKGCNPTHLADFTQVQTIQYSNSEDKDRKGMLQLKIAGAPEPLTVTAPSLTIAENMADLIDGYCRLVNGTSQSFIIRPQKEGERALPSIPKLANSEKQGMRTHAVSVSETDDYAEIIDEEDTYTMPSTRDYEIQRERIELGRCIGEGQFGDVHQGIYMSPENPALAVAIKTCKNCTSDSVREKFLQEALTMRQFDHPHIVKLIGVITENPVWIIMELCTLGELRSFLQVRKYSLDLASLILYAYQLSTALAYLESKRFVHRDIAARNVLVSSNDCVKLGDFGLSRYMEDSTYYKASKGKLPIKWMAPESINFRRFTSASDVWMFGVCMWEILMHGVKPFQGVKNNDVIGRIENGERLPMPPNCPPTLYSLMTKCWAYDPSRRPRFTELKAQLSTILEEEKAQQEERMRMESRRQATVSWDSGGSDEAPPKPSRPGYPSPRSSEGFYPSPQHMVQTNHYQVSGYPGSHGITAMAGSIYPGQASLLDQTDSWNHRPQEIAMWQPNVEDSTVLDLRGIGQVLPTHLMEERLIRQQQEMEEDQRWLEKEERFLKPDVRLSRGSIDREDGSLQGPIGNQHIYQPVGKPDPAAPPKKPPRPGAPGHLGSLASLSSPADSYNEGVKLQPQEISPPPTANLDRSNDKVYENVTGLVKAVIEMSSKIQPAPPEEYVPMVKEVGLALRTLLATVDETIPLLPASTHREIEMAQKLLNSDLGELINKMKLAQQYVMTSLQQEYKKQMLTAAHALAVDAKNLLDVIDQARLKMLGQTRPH
Description: as §1, §2, §3

DYRK1B = target: T3, DYRK1B (Homo sapiens, UniProt Q9Y463); assay: ScanMAX Kinase analysis panel, DYRK1B; type: binding; conditions: 1 μM in DMSO; <35% considered inhibitory; read-out: percent control (% control), DYRK1B
T3 construct: purchased DiscoverX Corp. (ScanMAX Kinase analysis panel, service)
T3 sequence (Q9Y463 whole entry): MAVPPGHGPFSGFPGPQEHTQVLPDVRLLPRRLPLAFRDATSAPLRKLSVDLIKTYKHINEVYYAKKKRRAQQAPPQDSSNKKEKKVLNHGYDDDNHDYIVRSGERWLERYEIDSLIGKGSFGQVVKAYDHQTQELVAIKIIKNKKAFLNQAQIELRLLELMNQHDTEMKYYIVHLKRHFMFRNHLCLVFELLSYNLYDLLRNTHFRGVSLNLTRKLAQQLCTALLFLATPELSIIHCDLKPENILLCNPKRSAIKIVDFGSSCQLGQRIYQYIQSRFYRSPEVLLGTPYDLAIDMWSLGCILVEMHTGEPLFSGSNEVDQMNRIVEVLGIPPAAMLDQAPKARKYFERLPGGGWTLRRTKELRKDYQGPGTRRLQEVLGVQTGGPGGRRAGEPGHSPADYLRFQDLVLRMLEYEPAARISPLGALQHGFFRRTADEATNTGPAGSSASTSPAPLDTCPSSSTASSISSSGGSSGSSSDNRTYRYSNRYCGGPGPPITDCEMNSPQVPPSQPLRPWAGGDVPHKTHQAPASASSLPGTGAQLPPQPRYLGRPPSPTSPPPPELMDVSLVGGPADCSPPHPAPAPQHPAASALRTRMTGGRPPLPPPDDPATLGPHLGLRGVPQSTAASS
Description: as §1, §2, §3

SMILES	pIC50 (DYRK1)	GI50 (MDA-MB-231 cell line) [nM]	inhibition at 1 µM (human DYRK1A and tau) [%]	inhibition at 0.25 µM (human DYRK1A and tau) [%]	inhibition at 0.5 µM (human DYRK1A and tau) [%]	inhibition at 0.5 µM (TNF-α) [%]	remaining binding at 1 µM (LRRK2 (G2019S)) [%]	remaining binding at 1 µM (CLK3) [%]	remaining binding at 1 µM (FAK) [%]	remaining binding at 1 µM (DYRK1B) [%]
COc1cc(S(=O)(=O)N2CCOCC2)ccc1Nc1nc(C2CC2)c2c(C#N)c[nH]c2n1 [Example 223, 4-cyclopropyl-2-((2-methoxy-4-(morpholinosulfonyl)phenyl)amino)-7H-pyrrolo[2,3-d]pyrimidine-5-carbonitrile]	6.52 to 7.00	301 to 1000								
COc1cc(S(=O)(=O)N2CCC(N3CCOCC3)CC2)ccc1Nc1nc(C2CC2)c2c(C(F)(F)F)c[nH]c2n1 [Example 226]	> 7.00	301 to 1000								
CNc1nc(Nc2ccc(S(=O)(=O)N3CCC(N4CCOCC4)CC3)c3c2OCCO3)nc2[nH]cc(C(F)(F)F)c12 [Example 219, N^4-methyl-N^2-(8-((4-morpholinopiperidin-1-yl)sulfonyl)-2,3-dihydrobenzo[b][1,4]dioxin-5-yl)-5-(trifluoromethyl)-7H-pyrrolo[2,3-d]pyrimidine-2,4-diamine]		301 to 1000	84.2	42.1	58.8	6.6				
O=C(c1ccc(Nc2nc(C3CC3)c3c(C(F)(F)F)c[nH]c3n2)c2c1OCCO2)N1CCC(N2CCOCC2)CC1 [Example 228, (8-((4-cyclopropyl-5-(trifluoromethyl)-7H-pyrrolo[2,3-d]pyrimidin-2-yl)amino)-2,3-dihydrobenzo[b][1,4]dioxin-5-yl)(4-morpholinopiperidin-1-yl)methanone]	> 7.00		49	9.3	24.7		1.1	25	24	0
CNc1nc(Nc2ccc(S(=O)(=O)N3CCC(N4CCOCC4)CC3)cc2OC)nc2[nH]cc(C(F)(F)F)c12 [Example 157, N^2-(2-methoxy-4-((4-morpholinopiperidin-1-yl)sulfonyl)phenyl)-N^4-methyl-5-(trifluoromethyl)-7H-pyrrolo[2,3-d]pyrimidine-2,4-diamine 2,2,2-trifluoroacetate]		301 to 1000	83.9	41.2	71	6.7	1.6	3.7	0.85	0
CCN1CCP(=O)(c2ccc(Nc3nc(C4CC4)c4c(C#N)c[nH]c4n3)c(OC)c2)CC1 [Example 261]	> 7.00									
CCNc1nc(Nc2ccc(S(=O)(=O)N3CCC(N4CCOCC4)CC3)cc2OC)nc2[nH]cc(C(F)(F)F)c12 [Example 158, N^4-ethyl-N^2-(2-methoxy-4-((4-morpholinopiperidin-1-yl)sulfonyl)phenyl)-5-(trifluoromethyl)-7H-pyrrolo[2,3-d]pyrimidine-2,4-diamine 2,2,2-trifluoroacetate]	> 7.00	101 to 300	66.8	25.4	59.7		3.6	11	1.1	0.8
CCNc1nc(Nc2ccc(S(=O)(=O)N3CCC(N4CCOCC4)CC3)c3c2OCCO3)nc2[nH]cc(C(F)(F)F)c12 [Example 430, N^4-ethyl-N^2-(8-((4-morpholino-piperidin-1-yl)sulfonyl)-2,3-dihydro-benzo[b][1,4]dioxin-5-yl)-5-(trifluoromethyl)-7H-pyrrolo[2,3-d]pyrimidine-2,4-diamine]		301 to 1000	65.3	10.8	41.6	4.5				
COCCNc1nc(Nc2ccc(C(=O)N3CCC(N4CCOCC4)CC3)c3c2OCC3)nc2[nH]cc(C#N)c12 [Example 359, 4-((2-methoxy-ethyl)ami-no)-2-((4-(4-morpholino-piperidine-1-carbonyl)-2,3-dihydro-benzofuran-7-yl)amino)-7H-pyrrolo[2,3-d]pyrimidine-5-carbonitrile]		301 to 1000	55.9	23.4	42.8	33.2				
CNc1nc(Nc2ccc(P3(=O)CCN(C4CC4)CC3)cc2OC)nc2[nH]cc(C(F)(F)F)c12 [Example 411, 1-cyclopropyl-4-(3-methoxy-4-((4-(methylamino)-5-(trifluoromethyl)-7H-pyrrolo[2,3-d]pyrimidin-2-yl)amino)phenyl)-1,4-azaphosphinane-4-oxide]			70.8	28.5	48.9		1.3	21	10	4.5
COc1cc(S(=O)(=O)N2CCC(N3CCOCC3)CC2)ccc1Nc1nc(C2CC2)c2c(C#N)c[nH]c2n1 [Example 224, 4-cyclopropyl-2-((2-methoxy-4-((4-morpholinopiperidin-1-yl)sulfonyl)phenyl)amino)-7H-pyrrolo[2,3-d]pyrimidine-5-carbonitrile]	> 7.00		39.9	3.6	15.6					
CNc1nc(Nc2ccc(C(=O)N3CCC(N4CCOCC4)CC3)c3c2OCCO3)nc2[nH]cc(C(F)(F)F)c12 [Example 238, (8-((4-(methylamino)-5-(trifluoromethyl)-7H-pyrrolo[2,3-d]pyrimidin-2-yl)amino)-2,3-dihydrobenzo[b][1,4]dioxin-5-yl)(4-morpholinopiperidin-1-yl)methanone]							0.05	7.8	7.8	0
CCCNc1nc(Nc2ccc(S(=O)(=O)N3CCC(N4CCOCC4)CC3)cc2OC)nc2[nH]cc(C(F)(F)F)c12 [Example 161, N^2-(2-methoxy-4-((4-morpholinopiperidin-1-yl)sulfonyl)phenyl)-N^4-propyl-5-(trifluoromethyl)-7H-pyrrolo[2,3-d]pyrimidine-2,4-diamine]	> 7.00	301 to 1000	50	0	27.9		0	11	2.3	0
C=CCNc1nc(Nc2ccc(S(=O)(=O)N3CCC(N4CCOCC4)CC3)cc2OC)nc2[nH]cc(C#N)c12 [Example 361, 4-(allylamino)-2-((2-methoxy-4-((4-morpholino-piperidin-1-yl)sulfonyl)phenyl)amino)-7H-pyrrolo[2,3-d]pyrimidine-5-carbonitrile]						9.3	0	21	0.75	6.1
COc1cc(S(=O)(=O)N2CCC(N3C[C@H]4C[C@@H]3CO4)CC2)ccc1Nc1nc(C2CC2)c2c(C(F)(F)F)c[nH]c2n1 [Example 473, N-(4-((4-((1R,4R)-2-oxa-5-azabicyclo[2.2.1]heptan-5-yl)piperidin-1-yl)sulfonyl)-2-methoxyphenyl)-4-cyclopropyl-5-(trifluoromethyl)-7H-pyrrolo[2,3-d]pyrimidin-2-amine]	> 7.00	101 to 300	73.3	16.3	35.8	11.3				
